According to patent publication US20100179225A1, “POI Prevention” (CYTOKINE PHARMASCIENCES, INC., priority 2008, published 2010):

Legend:
p38-MAPK = p38-MAPK activation in CSF-1 mutant op−/− mice (Pathscan-Phospho-p38α-ELISA); assay type: in vivo; settings: 5 mg/kg i.v. preoperative, 20 minutes after IM, mean±SEM
Excerpt: Male C57BL/6J mice ([…] bodyweight) were obtained from Harlan-Winkelmann (Borchen, Germany). CSF-1 mutant op−/− mice (strain B6C3Fe a/a-Csf1op) and populations of unknown heterozygous or wildtype genotype (op+/?) of mixed gender were used at an age of 6 weeks and bred as described before (Wehner S, Behrendt F F, Lyutenski B N et al. Inhibition of macrophage function prevents intestinal inflammation and postoperative ileus in rodents. Gut 2007; 56:176-185). op−/− mice were phenotyped by the absence of incisors at day P10. All experiments were performed in accordance with the federal law regarding the protection of animals. The principles of laboratory animal care were followed. Animals were maintained on a 12-hour light/dark cycle and provided with commercially available rodent chow and tap water ad libitum.
p38-MAPK phosphorylation was evaluated in unoperated homozygous colony stimulating factor-1 mutant mice (op−/−) mice, or in op−/− and op+/? mice (a mixed population of unknown heterozygous +/− or homozygous +/+ wildtype mice) 20 minutes after IM. […] Additionally, CNI-1493 (5 mg/kg) pretreated op−/− mice were analyzed. In this experiment, p38-MAPK phosphorylation was quantified by the Pathscan-Phospho-p38α-ELISA following manufacturer's instructions. Phospho-p38 content of each probe was determined in duplicate from lysates with 6.25 μg total protein content.

Lewis rats = assay: Intestinal injury (Park score) after syngeneic orthotopic small intestinal transplantation; assay type: in vivo; settings: 1 mg/kg i.v. to donor and recipient
Protocol: Syngeneic orthotopic small intestinal transplantation was performed in Lewis rats as previously described (Schwarz N T, Nakao A, Nalesnik M A, Kalff J C, Murase N, Bauer A J. Protective effects of ex vivo graft radiation and tacrolimus on syngeneic transplanted rat small bowel motility. Surgery 2002; 131: 413-423). […] Then the graft vascular bed was perfused with chilled UW solution (University of Wisconcin) and the intestinal lumen was irrigated with 50 ml cold 0.9% NaCl solution containing […]. neomycin sulfate (Uro Nebacetin N, Nycomed, Germany). The graft was stored in cold UW solution during the preparation of the recipient. An end-to-side anastomosis between the graft aorta and the recipient infra-renal aorta, and between the graft vein and recipient vena cava, was performed. Approximately 80% of the recipient intestine was removed and enteric continuity was restored by proximal and distal end-to-end intestinal anastomoses. […]
Histological changes and intestinal injury were graded by determination of the Park score 3 and 18 hours after reperfusion. […] Probes were analyzed in a blinded way.
Syngeneic orthotopic small intestinal transplantation was performed as described above and histological changes and intestinal injury were graded by determination of the Park score 3 and 18 hours after reperfusion. […] Probes were analyzed in a blinded way.

Row | Structure (SMILES) | p38-MAPK phosphorylation levels (phospho-p38 ELISA) (p38-MAPK) | Park's score (Lewis rats; 3 hours after reperfusion) | Park's score (Lewis rats; 18 hours after reperfusion)
1 | C/C(=N\N=C(N)N)c1cc(NC(=O)CCCCCCCCC(=O)Nc2cc(/C(C)=N/N=C(N)N)cc(/C(C)=N/N=C(N)N)c2)cc(/C(C)=N/N=C(N)N)c1.Cl.Cl.Cl.Cl [CNI-1493] | 3.24±0.66 |  | 
2 | C/C(=N\N=C(N)N)c1cc(NC(=O)CCCCCCCCC(=O)Nc2cc(/C(C)=N/N=C(N)N)cc(/C(C)=N/N=C(N)N)c2)cc(/C(C)=N/N=C(N)N)c1.CS(=O)(=O)O.CS(=O)(=O)O.CS(=O)(=O)O.CS(=O)(=O)O [CPSI-2364] |  | 1.83 | 1.5
